Experiment [1] concerns sgk1+/+ and sgk1−/− mice. Nature of the experiment: DOCA/high salt treatment of sgk1+/+ and sgk1−/− mice: blood pressure, plasma electrolytes, salt intake. The experiment is classed as in vivo. As to the method: To explore whether SGK1 may be involved in the signalling of cardiac fibrosis a pellet continuously releasing DOCA (2.4 mg/day) was implanted into both sgk1+/+ and sgk1−/− mice along with 1% NaCl in the drinking water.
Mice deficient in SGK1 (sgk1−/−) were generated as previously described 9. Wild type (sgk1+/+) and SGK1 knockout (sgk1−/−) mice were implanted with a 21 day release 50 mg DOCA pellet (Innovative Research of America, Sarasota, Fla.) in the neck area (28) during anesthesia (intraperitoneal medetomidin 0.5 mg/kg+midazolam 5 mg/kg+fentanyl 0.05 mg/kg which was reversed by subcutaneous atipamezol 2.5 mg/kg+flumazenil 0.5 mg/kg+naloxon 1.2 mg/kg). One day before implantation of DOCA pellets, sgk1−/− and sgk1+/+ mice were weighed and placed individually in metabolic cages (Tecniplast Hohenpeissenberg, Germany) for basal 24 hour urine collection. Mice had free access to a standard mouse diet (Altromin, Heidenau, Germany) and tap water and/or 1% or 2% NaCl. The inner wall of the metabolic cages was siliconized and urine was collected under water-saturated oil. Systolic arterial blood pressure was determined by the tail-cuff method before and on days 1, 2, 4, 6, 10 and 14 of DOCA/1% NaCl treatment 29. On day 18 of DOCA/high salt treatment, 24 hour urine and body weight were again determined, animals anesthetized (intraperitoneal ketamine and xylazine) and 200 μl of blood withdrawn into heparinized capillaries by puncturing the retro-orbital plexus. Plasma and urinary concentrations of Na+ and K+ were measured by flame photometer (ELEX 6361, Eppendorf, Germany), Cl— concentrations by electrometric titration (Chloridometer 6610, Eppendorf, Germany), Ca2+, phosphorus and creatinine were assessed by commercial diagnostic kits (Sigma, Munich, Germany).

In experiment [2] the test system is sgk1+/+ and sgk1−/− mice. Nature of the experiment: Cardiac fibrosis by microscopy (H&E and Masson's trichrome) after DOCA/high salt. The experiment is classed as in vivo. Particulars: 18 day DOCA/high salt. As for the experimental part:
Hearts from untreated or DOCA/high salt treated (18 days) sgk1+/+ and sgk1−/− mice were quickly removed under anesthesia, the weight determined and fixed in 4% paraformaldehyde/0.1 M sodium phosphate buffer (pH 7.2) overnight and embedded in paraffin. Dewaxed 5 μm thick heart muscle sections were stained with H&E and Masson's trichrome (30). Stained paraffin sections were analysed on a Zeiss Axioplan microscope (Zeiss, Jena, Germany). Areas were measured on digitized images using an Axiocam video camera (Zeiss, Jena, Germany) using the manufacture's software (Axiovision, Zeiss, Jena, Germany). Total tissue areas were measured with a 4× objective; fibrotic areas were identified and quantified using a 20× objective. The degree of fibrosis was then calculated as a percentage of total tissue area.

Experiment [3] concerns CTGF. Nature of the experiment: CTGF expression in primary mouse lung fibroblasts after DOCA stimulation (Western blot). The experiment is classed as cell-based. Particulars: DOCA 10 μM, 24 h; sgk1+/+ and sgk1−/− cells. As to the method:
To harvest lung fibroblasts from sgk1+/+ and sgk1−/− mice (8-14 weeks old), whole lungs were removed and transferred to 90 mm cell culture dishes containing 2 ml of DMEM supplemented with 10% fetal calf serum, 100 U/ml Penicillin, […] Streptomycin and 2 mM L-glutamine (Gibco-Invitrogen, Karlsruhe, Germany). The tissue was cut into small pieces and cultured under standard cell culture conditions (37° C., 5% CO2). Cell growth was observed 2-4 days after initial plating. Fibroblasts were identified by positive staining for fibronectin and used in experiments between passages 2-6. Increase of SGK1 mRNA by DOCA treatment and absence of SGK1 in sgk1−/− mice lung fibroblasts was confirmed by realtime PCR (data not shown). […]
(In general: Immunoblotting shows a protein as a band on a membrane.)

The subject of experiment [4] is CTGF. Nature of the experiment: Cardiac CTGF expression by Western blotting after DOCA/salt. The experiment is classed as in vivo, mice. The conditions noted are these: for CTGF expression in cardiac tissue (Western blot): DOCA/high salt for 18 days. As to the method: Whole hearts from untreated and DOCA/high salt treated (18 days) sgk1+/+ and sgk1−/− mice were removed and immediately frozen in liquid nitrogen, the tissue was then homogenised using a glass homogeniser in lysis buffer containing 50 mM Tris-HCl, pH 7.4, 100 mM NaCl, 1 mM EDTA, 1 mM EGTA, 50 mM sodium fluoride, 5 mM sodium pyrophosphate, 1 mM sodium orthovanadate, 1% Triton X-100, 1% sodium deoxycholate, 1% sodium doecyl sulphate and protease cocktail inhibitor (Roche, Basel, Switzerland), the homogenates were centrifuged at 10,000 rpm, 4° C. for 15 min, the supernatant was removed and used for Western blotting. sgk1+/+ and sgk1−/− mouse lung fibroblasts in 60 mm culture dishes were serum deprived for 18 h prior to the addition of DOCA (10 μM), 24 h later the cells were lysed. Whole cell lysates (50 μg) and heart homogenates (70 μg) were separated by SDS-page (10% Tris-Glycine), transferred to nitrocellulose membranes, blocked for 1 h in blocking buffer (5% fat-free milk in PBS containing 0.1% Tween) and incubated overnight at 4° C. with a goat polyclonal CTGF primary antibody (diluted 1:400 in blocking buffer, Santa Cruz, Heidelberg, Germany). After incubation with a HRP-conjugated anti-goat secondary antibody (Santa Cruz, Heidelberg, Germany) visualization with ECL was performed according to manufacture's instructions (Amersham, Freiburg, Germany). Membranes were also probed with a primary β-tubulin (Santa Cruz, Heidelberg, Germany) antibody as a loading control. Densitometric analysis of CTGF was performed using Scion Image (Scion, Md., USA) and normalized using β-tubulin.

In experiment [5] the test system is sgk1+/+ and sgk1−/− mice. Description: Cardiac gene transcription after DOCA/high salt (microarray analysis, real-time PCR). In kind it is in vivo. As to the method: Total RNA was isolated from hearts obtained from untreated or DOCA/high salt (48 h) treated sgk1+/+ and sgk1−/− mice using the Qiagen RNeasy Fibrous Tissue Midi Kit according to the manufacture's instructions (Qiagen, Hilden, Germany). Using total RNA from hearts of DOCA/high salt or sham-treated sgk1−/− and sgk1+/+ mice, second-strand syntheses were generated using a commercially available kit (Invitrogen Life Technologies, Rockville, Md.) and an oligo d(T)24 T7 primer. cRNA was generated using biotin-labelled CTP and UTP by in vitro transcription using a T7 promoter-coupled double stranded cDNA as template and the T7 RNA transcript labelling kit (ENZO Diagnostics, Farmingdale, N.Y.). The cRNA was fragmented and hybridised to the mouse genome MOE430A oligonucleotide array chip (Affymetrix, Santa Clara, Calif.). The array chips were then stained using phycoerythrin conjugated streptavidin (Molecular Probes, Invitrogen Life Technologies, Rockville, Md.) and the fluorescence intensities were determined using a laser confocal scanner (Agilent, Affymetrix, Santa Clara, Calif.). The intensity of the scanned images was analysed using Microarray Suite Version 5 (Affymetrix, Santa Clara, Calif.). Global scaling was applied to all arrays such that the mean intensity of each array was equivalent. In global scaling, the raw signal value of each probe cell was multiplied by a scaling factor.
A general note: Quantitative PCR measures a nucleic acid by following its amplification.

As to `CC(=O)OCC(=O)[C@H]1CC[C@H]2[C@@H]3CCC4=CC(=O)CC[C@]4(C)[C@H]3CC[C@]12C` [DOCA], in the experiment on sgk1+/+ and sgk1−/− mice [1] (DOCA/high salt for 18 days, sgk1+/+ vs sgk1−/− mice), the hypokalemia result is listed as “significant hypokalemia in sgk1+/+ but not in sgk1−/− mice”. Besides, the “salt intake from bottle 2 (1% NaCl)” value with sgk1+/+ and sgk1−/− mice [1] (sgk1+/+ mice, after implanting the DOCA pellet) is “pronounced increase in salt intake”. For the same compound, the blood pressure result in the experiment with sgk1+/+ and sgk1−/− mice [1] (sgk1−/− and sgk1+/+ mice, DOCA/high salt for 18 days) is listed as “statistically significant increases in blood pressure”. The “fibrosis of the heart” value with sgk1+/+ and sgk1−/− mice [2] (sgk1+/+ mice) is “marked fibrosis of the heart”; in the experiment with sgk1+/+ and sgk1−/− mice [2] (sgk1−/− mice) it was “without any appreciable effect on the heart”. The “CTGF levels in primary mouse lung fibroblasts” value in the experiment with CTGF [3] was “elevated CTGF levels only in the sgk1+/+ cells”. The “cardiac CTGF expression, CTGF/β-tubulin densitometric analysis” value in the experiment on CTGF [4] (sgk1+/+ mice, DOCA/1% salt (untreated: 0.9±0.2), P<0.01) stood at 4.7±1.0 arbitrary units; in the experiment with CTGF [4] (sgk1−/− mice, DOCA/high salt (untreated: 1.5±1.0)), 1.7±0.7 arbitrary units. Besides, the figures for the “CTGF expression in cardiac tissue (Western blot)” value in the experiment on CTGF [4] (sgk1+/+ mice) and in the experiment with CTGF [4] (sgk1−/− mice) were “markedly upregulated CTGF expression” and “unaltered”, respectively. Also, the “fold increase in SGK1/GAPDH copy number (SGK1 transcription)” value in the experiment with sgk1+/+ and sgk1−/− mice [5] (heart, sgk1+/+ mice, 48 h DOCA/high salt vs untreated sgk1+/+ mice, real-time PCR) came out at 2.10±0.14 fold. Besides, the “induction of fibrosis genes (procollagens, integrin α5, proteoglycan 4, CTGF), microarray” value is reported as “induced several genes involved in the pathogenesis of fibrosis” in the experiment on sgk1+/+ and sgk1−/− mice [5] (sgk1+/+ mice, 48 h DOCA/high salt); “none of these genes were induced” in the experiment with sgk1+/+ and sgk1−/− mice [5] (sgk1−/− mice, DOCA/high salt).

For the origin of these results see patent US20070203085A1, “Methods For Interfering With Fibrosis” (priority 2004, published 2007).
